Data set [1] can be described thus: Selectivity for zinc ions: fluorescence intensity in buffer containing various metal ions. Particulars: 1 μM compound. The protocol: Compound 6 obtained in Example 1 and Compound 12 obtained in Example 2 were used to evaluate selectivity for zinc ions. 5 μM of Compound 6 or Compound 12 was added in 100 mM HEPES buffer (pH 7.5) containing various metal ions (5 μM or 5 mM). The fluorescence intensity was measured at the excitation wavelength of 491 nm and the fluorescence wavelength of 513 nm for Compound 6, and the excitation wavelength of 492 nm and the fluorescence wavelength of 514 nm for Compound 12. The results are shown in FIG. 1 (Compound 6) and FIG. 2 (Compound 12). 1 μM of Compound 21 was added in 100 mM HEPES buffer (pH 7.5) containing various metal ions (1 μM or 5 mM), and the fluorescence intensity was measured at the excitation wavelength of 505 nm and the fluorescence wavelength of 522 nm.
In the figures, the fluorescence intensities on the ordinate axis are shown as numerical values with addition of each metal ion relative to the fluorescence intensity without addition of metal ion which is taken as 1.

A short description of data set [2]: Changes in fluorescence intensity with relation to pH changes. It counts as physicochemical. The settings on record: pH of around 7.4 (intracellular pH). The procedure:
Changes in fluorescence intensity of Compound 12, Compound 21, and zinc complexes thereof were investigated with relation to pH changes. The fluorescence intensity was measured at the excitation wavelength of 492 nm and the fluorescence wavelength of 514 nm for Compound 12, and the excitation wavelength of 505 nm and the fluorescence wavelength of 522 nm for Compound 21.
Buffers used are as follows.
100 mM Cl2CHCOOH—Cl2CHCOONa buffer (pH 2.0)
100 mM ClCH2COOH—ClCH2COONa buffer (pH 3.0)
100 mM CHES buffer (pH 8.5)

The conditions of data set [3]: conventional probes, short wavelength excitation light; cited from earlier work.
The nature of data set [4]: Changes with time in fluorescence intensity after addition of zinc ion. The settings on record: 5 μM compound, zinc ion 5 μM or 50 μM, 100 mM HEPES pH 7.5. The procedure: Zinc ion (final concentration 5 μM or 50 μM) was added in 100 mM HEPES (pH 7.5) containing 5 μM Compound 6, Compound 12, or ACF-1 (a compound having a cyclic polyamine moiety described as Compound (20) in Example 1 in Japanese Patent Application No. (Hei) 11-40325) to measure fluorescence intensity. The fluorescence intensity was measured at the excitation wavelength of 491 nm and the fluorescence wavelength of 513 nm for Compound 6, the excitation wavelength of 492 nm and the fluorescence wavelength of 514 nm for Compound 12, and the excitation wavelength of 495 nm and the fluorescence wavelength of 515 nm for ACF-1. In the figure, the ordinate axis represents relative fluorescence intensity. […] Accordingly, the use of the compound according to the present invention enables very quick detection of zinc, and also enables the detection of rapid change in the concentration of zinc.

For the compound `O=C1C=C2Oc3cc(O)c(Cl)cc3C(c3ccc(NCCN(Cc4ccccn4)Cc4ccccn4)cc3C(=O)O)C2C=C1Cl` (centres unmarked) [Compound 21], the selectivity for zinc result in data set [1] (100 mM HEPES buffer pH 7.5, various metal ions 1 μM or 5 mM) is listed as “high selectivity”. Besides, the “effect of sodium, potassium, calcium, magnesium on the increase in fluorescence intensity caused by zinc” value in data set [1] (HEPES pH 7.5) is listed as “did not affect”. The “increase in fluorescence intensity on addition of sodium, potassium, calcium and magnesium” value in data set [1] (metal ions at high concentration (5 mM), HEPES pH 7.5) is “almost no increase”. For the same compound, the “stability of fluorescence intensity to pH changes” value in data set [2] was “more stable than Compound 12”.

Turning to `CN(C)c1cccc2c(S(=O)(=O)NCCN3CCNCCNCCNCC3)cccc12` [Dansylaminoethylcyclen], in data set [3], the excitation wavelength is reported as 323 nm.

As to `COc1cc(NS(=O)(=O)c2ccc(C)cc2)c2ncccc2c1` [TSQ], in data set [3], the excitation wavelength is listed as 367 nm.

For `CN1CCN(C)CCN(c2ccc(-c3c4ccc(=O)cc-4oc4cc(O)ccc34)cc2)CCN(C)CC1` [ACF-1], the “increase of fluorescence intensity with time after zinc ion addition” value in data set [4] is given as “not instantly increased”.

As to `CCOC(=O)COc1cc(NS(=O)(=O)c2ccc(C)cc2)c2nc(C)ccc2c1` [Zinquin], in data set [3], the excitation wavelength was 368 nm.

The record behind these values is patent US7074823B2, “Fluorescent probe for zinc” (Daiichi Pure Chemical Co., Ltd., priority 2000, dated 2006).
